This note sets out measurements from article PMC10619143, “Development of a covalent cereblon-based PROTAC employing a fluorosulfate warhead” (RSC Chemical Biology, 2023).

This test addresses T1, cereblon (CRBN) (Homo sapiens, UniProt Q96SW2).
T1 construct: CRBN-DDB1ΔB complex; with DDB1ΔB
Description: intact protein MS covalent labelling and MS/MS site mapping (also cellular NanoBRET IC50 […] at […] h). It is filed as binding. On the technique in general: Bioluminescence resonance energy transfer reports proximity on the nanometre scale.

T1 sequence (Q16531 2-1140): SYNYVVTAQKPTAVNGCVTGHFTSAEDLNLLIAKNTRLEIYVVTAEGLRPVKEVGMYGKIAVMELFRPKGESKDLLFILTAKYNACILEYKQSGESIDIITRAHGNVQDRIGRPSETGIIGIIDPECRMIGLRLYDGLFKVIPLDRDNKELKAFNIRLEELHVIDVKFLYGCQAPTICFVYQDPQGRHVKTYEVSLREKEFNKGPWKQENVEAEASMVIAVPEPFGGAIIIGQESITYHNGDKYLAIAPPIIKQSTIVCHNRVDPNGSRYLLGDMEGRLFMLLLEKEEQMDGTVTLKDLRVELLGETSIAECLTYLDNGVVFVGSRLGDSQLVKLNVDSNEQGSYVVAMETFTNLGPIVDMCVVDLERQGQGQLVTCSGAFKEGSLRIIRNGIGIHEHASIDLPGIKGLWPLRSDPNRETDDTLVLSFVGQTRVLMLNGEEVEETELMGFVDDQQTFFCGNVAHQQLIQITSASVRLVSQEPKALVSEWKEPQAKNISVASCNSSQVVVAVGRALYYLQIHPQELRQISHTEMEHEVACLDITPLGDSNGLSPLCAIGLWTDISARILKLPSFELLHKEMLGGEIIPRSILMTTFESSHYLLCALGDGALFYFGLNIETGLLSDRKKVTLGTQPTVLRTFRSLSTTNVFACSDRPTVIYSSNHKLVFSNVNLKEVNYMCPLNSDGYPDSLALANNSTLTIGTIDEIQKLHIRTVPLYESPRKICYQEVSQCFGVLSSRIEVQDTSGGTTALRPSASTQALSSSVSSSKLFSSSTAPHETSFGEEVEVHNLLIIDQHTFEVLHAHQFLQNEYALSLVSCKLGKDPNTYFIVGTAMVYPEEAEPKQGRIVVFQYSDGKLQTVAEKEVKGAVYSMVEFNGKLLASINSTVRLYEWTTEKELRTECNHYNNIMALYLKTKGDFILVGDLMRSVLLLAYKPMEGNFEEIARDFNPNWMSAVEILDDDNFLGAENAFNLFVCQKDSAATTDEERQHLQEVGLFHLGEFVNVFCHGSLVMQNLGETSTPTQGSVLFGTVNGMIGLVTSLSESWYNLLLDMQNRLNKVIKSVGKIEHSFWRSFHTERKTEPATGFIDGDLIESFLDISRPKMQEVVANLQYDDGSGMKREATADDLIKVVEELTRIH
T1 sequence (Q96SW2 whole entry): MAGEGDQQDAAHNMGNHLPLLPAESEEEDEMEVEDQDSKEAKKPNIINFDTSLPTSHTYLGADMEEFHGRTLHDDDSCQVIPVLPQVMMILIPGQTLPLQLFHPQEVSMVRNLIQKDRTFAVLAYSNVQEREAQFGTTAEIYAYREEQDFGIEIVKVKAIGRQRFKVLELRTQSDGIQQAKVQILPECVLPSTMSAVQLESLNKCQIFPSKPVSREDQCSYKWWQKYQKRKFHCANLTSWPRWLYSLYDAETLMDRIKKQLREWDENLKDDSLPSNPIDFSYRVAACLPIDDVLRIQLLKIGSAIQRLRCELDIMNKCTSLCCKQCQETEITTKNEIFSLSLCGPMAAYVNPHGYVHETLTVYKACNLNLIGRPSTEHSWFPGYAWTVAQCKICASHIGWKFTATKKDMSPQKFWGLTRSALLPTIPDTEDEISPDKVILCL

As to `Cc1sc2c(c1C)C(c1ccc(Cl)cc1)=N[C@@H](CC(=O)Nc1ccc(OCCOCCOCCOCCNc3cc(OS(=O)(=O)F)cc4c3C(=O)N(C3CCC(=O)NC3=O)C4=O)cc1)c1nnc(C)n1-2` (stereo partly shown) [FS-ARV-825], the “% labelled (10 μM, 24 h)” value is on record as ~ 50 % labelled (10 μM, 24 h).
